Active and inactive are the calls of the source. The calls are words filed in the database; no cut-off is given here.
Experiments:
[1] = target: T1, Dihydrofolate reductase (Bos taurus, UniProt P00376); test: Inhibition of bovine liver DHFR
T1 sequence (P00376 whole entry): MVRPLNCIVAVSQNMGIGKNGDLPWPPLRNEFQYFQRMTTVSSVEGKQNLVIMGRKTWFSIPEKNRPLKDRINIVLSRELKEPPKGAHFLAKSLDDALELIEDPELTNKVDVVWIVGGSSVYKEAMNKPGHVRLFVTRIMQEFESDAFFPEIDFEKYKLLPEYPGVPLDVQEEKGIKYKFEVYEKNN

[2] = test system: Staphylococcus aureus; test: Antimicrobial activity against Staphylococcus aureus assessed as inhibition zone at 200 ug/disk after 24 hrs by disc-diffusion method; assay type: functional; details: read-out: IZ
[3] = test system: Bacillus subtilis; test: Antimicrobial activity against Bacillus subtilis assessed as inhibition zone at 200 ug/disk after 24 hrs by disc-diffusion method; assay type: functional; details: read-out: IZ
[4] = test system: Escherichia coli; test: Antimicrobial activity against Escherichia coli assessed as inhibition zone at 200 ug/disk after 24 hrs by disc-diffusion method; assay type: functional; details: read-out: IZ
[5] = test system: Pseudomonas aeruginosa; test: Antimicrobial activity against Pseudomonas aeruginosa assessed as inhibition zone at 200 ug/disk after 24 hrs by disc-diffusion method; assay type: functional; details: read-out: IZ
[6] = test system: Candida albicans; test: Antimicrobial activity against Candida albicans assessed as inhibition zone at 200 ug/disk after 24 hrs by disc-diffusion method; assay type: functional; details: read-out: IZ
[7] = test system: CCRF-CEM; test: Growth inhibition of human CCRF-CEM cells at 10 uM after 48 hrs; assay type: functional
[8] = test system: HL-60(TB); test: Growth inhibition of human HL-60(TB) cells at 10 uM after 48 hrs; assay type: functional
[9] = test system: K562; test: Growth inhibition of human K562 cells at 10 uM after 48 hrs; assay type: functional
[10] = test system: MOLT-4; test: Growth inhibition of human MOLT4 cells at 10 uM after 48 hrs; assay type: functional
[11] = test system: RPMI-8226; test: Growth inhibition of human RPMI8226 cells at 10 uM after 48 hrs; assay type: functional
[12] = test system: SR; test: Growth inhibition of human SR cells at 10 uM after 48 hrs; assay type: functional
[13] = test system: A549; test: Growth inhibition of human A549 cells at 10 uM after 48 hrs; assay type: functional
[14] = test system: HOP-92; test: Growth inhibition of human HOP92 cells at 10 uM after 48 hrs; assay type: functional
[15] = test system: NCI-H226; test: Growth inhibition of human NCI-H226 cells at 10 uM after 48 hrs; assay type: functional
[16] = test system: NCI-H23; test: Growth inhibition of human NCI-H23 cells at 10 uM after 48 hrs; assay type: functional
[17] = test system: NCI-H460; test: Growth inhibition of human NCI-H460 cells at 10 uM after 48 hrs; assay type: functional
[18] = test system: NCI-H522; test: Growth inhibition of human NCI-H522 cells at 10 uM after 48 hrs; assay type: functional
[19] = test system: COLO 205; test: Growth inhibition of human COLO205 cells at 10 uM after 48 hrs; assay type: functional
[20] = test system: HCC 2998; test: Growth inhibition of human HCC2998 cells at 10 uM after 48 hrs; assay type: functional
[21] = test system: HCT-116; test: Growth inhibition of human HCT116 cells at 10 uM after 48 hrs; assay type: functional
[22] = test system: HCT-15; test: Growth inhibition of human HCT15 cells at 10 uM after 48 hrs; assay type: functional
[23] = test system: HT-29; test: Growth inhibition of human HT-29 cells at 10 uM after 48 hrs; assay type: functional
[24] = test system: KM12; test: Growth inhibition of human KM12 cells at 10 uM after 48 hrs; assay type: functional
[25] = test system: SW-620; test: Growth inhibition of human SW620 cells at 10 uM after 48 hrs; assay type: functional
[26] = test system: SF-268; test: Growth inhibition of human SF268 cells at 10 uM after 48 hrs; assay type: functional
[27] = test system: SF-295; test: Growth inhibition of human SF295 cells at 10 uM after 48 hrs; assay type: functional
[28] = test system: SF-539; test: Growth inhibition of human SF539 cells at 10 uM after 48 hrs; assay type: functional
[29] = test system: SNB-19; test: Growth inhibition of human SNB19 cells at 10 uM after 48 hrs; assay type: functional
[30] = test system: SNB-75; test: Growth inhibition of human SNB75 cells at 10 uM after 48 hrs; assay type: functional
[31] = test system: U-251; test: Growth inhibition of human U251 cells at 10 uM after 48 hrs; assay type: functional
[32] = test system: LOX IMVI; test: Growth inhibition of human LOXIMVI cells at 10 uM after 48 hrs; assay type: functional
[33] = test system: Malme-3M; test: Growth inhibition of human MALME-3M cells at 10 uM after 48 hrs; assay type: functional
[34] = test system: M14; test: Growth inhibition of human M14 cells at 10 uM after 48 hrs; assay type: functional
[35] = test system: MDA-MB-435; test: Growth inhibition of human MDA-MB-435 cells at 10 uM after 48 hrs; assay type: functional
[36] = test system: SK-MEL-5; test: Growth inhibition of human SK-MEL-5 cells at 10 uM after 48 hrs; assay type: functional
[37] = test system: UACC-257; test: Growth inhibition of human UACC257 cells at 10 uM after 48 hrs; assay type: functional
[38] = test system: UACC-62; test: Growth inhibition of human UACC62 cells at 10 uM after 48 hrs; assay type: functional
[39] = test system: OVCAR-3; test: Growth inhibition of human OVCAR3 cells at 10 uM after 48 hrs; assay type: functional
[40] = test system: OVCAR-4; test: Growth inhibition of human OVCAR4 cells at 10 uM after 48 hrs; assay type: functional
[41] = test system: OVCAR-5; test: Growth inhibition of human OVCAR5 cells at 10 uM after 48 hrs; assay type: functional
[42] = test system: OVCAR-8; test: Growth inhibition of human OVCAR8 cells at 10 uM after 48 hrs; assay type: functional
[43] = test system: NCI/ADR-RES; test: Growth inhibition of human NCI-ADR-RES cells at 10 uM after 48 hrs; assay type: functional
[44] = test system: 786-0; test: Growth inhibition of human 786-0 cells at 10 uM after 48 hrs; assay type: functional
[45] = test system: A498; test: Growth inhibition of human A498 cells at 10 uM after 48 hrs; assay type: functional
[46] = test system: ACHN; test: Growth inhibition of human ACHN cells at 10 uM after 48 hrs; assay type: functional
[47] = test system: CAKI-1; test: Growth inhibition of human CAKI-1 cells at 10 uM after 48 hrs; assay type: functional
[48] = test system: RXF 393; test: Growth inhibition of human RXF393 cells at 10 uM after 48 hrs; assay type: functional
[49] = test system: SN12C; test: Growth inhibition of human SN12C cells at 10 uM after 48 hrs; assay type: functional
[50] = test system: TK-10; test: Growth inhibition of human TK10 cells at 10 uM after 48 hrs; assay type: functional
[51] = test system: UO-31; test: Growth inhibition of human UO31 cells at 10 uM after 48 hrs; assay type: functional
[52] = test system: PC-3; test: Growth inhibition of human PC3 cells at 10 uM after 48 hrs; assay type: functional
[53] = test system: MCF7; test: Growth inhibition of human MCF7 cells at 10 uM after 48 hrs; assay type: functional
[54] = test system: MDA-MB-231; test: Growth inhibition of human MDA-MB-231 cells at 10 uM after 48 hrs; assay type: functional
[55] = test system: Hs-578T; test: Growth inhibition of human Hs 578T cells at 10 uM after 48 hrs; assay type: functional
[56] = test system: BT-549; test: Growth inhibition of human BT549 cells at 10 uM after 48 hrs; assay type: functional
[57] = test system: T47D; test: Growth inhibition of human T47D cells at 10 uM after 48 hrs; assay type: functional
[58] = test system: MDA-MB-468; test: Growth inhibition of human MDA-MB-468 cells at 10 uM after 48 hrs; assay type: functional

COc1cc2nc(Sc3sc(N)nc3C)n(-c3ccc(C)cc3)c(=O)c2cc1OC
IC50 [1]: 8 µM
zone of inhibition at 200 µg/disc [2]: 8 mm
zone of inhibition at 200 µg/disc [3]: 8 mm
zone of inhibition at 200 µg/disc [4]: 8 mm
zone of inhibition at 200 µg/disc [5]: 8 mm
zone of inhibition at 200 µg/disc [6]: 8 mm
growth inhibition (GI) [7]: inactive
growth inhibition (GI) [8]: inactive
growth inhibition (GI) [9]: inactive
growth inhibition (GI) [10]: inactive
growth inhibition (GI) [11]: inactive
growth inhibition (GI) [12]: inactive
growth inhibition (GI) [13]: inactive
growth inhibition (GI) [14]: inactive
growth inhibition (GI) [15]: inactive
growth inhibition (GI) [16]: inactive
growth inhibition (GI) [17]: inactive
growth inhibition (GI) [18]: inactive
growth inhibition (GI) [19]: inactive
growth inhibition (GI) [20]: inactive
growth inhibition (GI) [21]: inactive
growth inhibition (GI) [22]: inactive
growth inhibition (GI) [23]: inactive
growth inhibition (GI) [24]: inactive
growth inhibition (GI) [25]: inactive
growth inhibition (GI) [26]: inactive
growth inhibition (GI) [27]: inactive
growth inhibition (GI) [28]: inactive
growth inhibition (GI) [29]: inactive
growth inhibition (GI) [30]: inactive
growth inhibition (GI) [31]: inactive
growth inhibition (GI) [32]: inactive
growth inhibition (GI) [33]: inactive
growth inhibition (GI) [34]: inactive
growth inhibition (GI) [35]: inactive
growth inhibition (GI) [36]: inactive
growth inhibition (GI) [37]: inactive
growth inhibition (GI) [38]: inactive
growth inhibition (GI) [39]: inactive
growth inhibition (GI) [40]: inactive
growth inhibition (GI) [41]: inactive
growth inhibition (GI) [42]: inactive
growth inhibition (GI) [43]: inactive
growth inhibition (GI) [44]: inactive
growth inhibition (GI) [45]: inactive
growth inhibition (GI) [46]: inactive
growth inhibition (GI) [47]: inactive
growth inhibition (GI) [48]: inactive
growth inhibition (GI) [49]: inactive
growth inhibition (GI) [50]: inactive
growth inhibition (GI) [51]: inactive
growth inhibition (GI) [52]: inactive
growth inhibition (GI) [53]: inactive
growth inhibition (GI) [54]: inactive
growth inhibition (GI) [55]: inactive
growth inhibition (GI) [56]: inactive
growth inhibition (GI) [57]: inactive
growth inhibition (GI) [58]: inactive

Cc1nc(N)sc1Sc1nc2ccc(Cl)cc2c(=O)n1-c1ccc(Cl)cc1
IC50 [1]: 8 µM
zone of inhibition at 200 µg/disc [2]: 8 mm
zone of inhibition at 200 µg/disc [3]: 8 mm
zone of inhibition at 200 µg/disc [4]: 8 mm
zone of inhibition at 200 µg/disc [5]: 8 mm
zone of inhibition at 200 µg/disc [6]: 8 mm
growth inhibition (GI) [7]: inactive
growth inhibition (GI) [8]: inactive
growth inhibition (GI) [9]: inactive
growth inhibition (GI) [10]: inactive
growth inhibition (GI) [11]: inactive
growth inhibition (GI) [12]: inactive
growth inhibition (GI) [13]: inactive
growth inhibition (GI) [14]: inactive
growth inhibition (GI) [15]: inactive
growth inhibition (GI) [16]: inactive
growth inhibition (GI) [17]: inactive
growth inhibition (GI) [18]: inactive
growth inhibition (GI) [19]: inactive
growth inhibition (GI) [20]: inactive
growth inhibition (GI) [21]: inactive
growth inhibition (GI) [22]: inactive
growth inhibition (GI) [23]: inactive
growth inhibition (GI) [24]: inactive
growth inhibition (GI) [25]: inactive
growth inhibition (GI) [26]: inactive
growth inhibition (GI) [27]: inactive
growth inhibition (GI) [28]: inactive
growth inhibition (GI) [29]: inactive
growth inhibition (GI) [30]: inactive
growth inhibition (GI) [31]: inactive
growth inhibition (GI) [32]: inactive
growth inhibition (GI) [33]: inactive
growth inhibition (GI) [34]: inactive
growth inhibition (GI) [35]: inactive
growth inhibition (GI) [36]: inactive
growth inhibition (GI) [37]: inactive
growth inhibition (GI) [38]: inactive
growth inhibition (GI) [39]: inactive
growth inhibition (GI) [40]: inactive
growth inhibition (GI) [41]: inactive
growth inhibition (GI) [42]: inactive
growth inhibition (GI) [43]: inactive
growth inhibition (GI) [44]: inactive
growth inhibition (GI) [45]: inactive
growth inhibition (GI) [46]: inactive
growth inhibition (GI) [47]: inactive
growth inhibition (GI) [48]: inactive
growth inhibition (GI) [49]: inactive
growth inhibition (GI) [50]: inactive
growth inhibition (GI) [51]: inactive
growth inhibition (GI) [52]: inactive
growth inhibition (GI) [53]: inactive
growth inhibition (GI) [54]: inactive
growth inhibition (GI) [55]: inactive
growth inhibition (GI) [56]: inactive
growth inhibition (GI) [57]: inactive
growth inhibition (GI) [58]: inactive

Source: ChEMBL document CHEMBL3352542, “Synthesis, biological evaluation and molecular modeling study of 2-(1,3,4-thiadiazolyl-thio and 4-methyl-thiazolyl-thio)-quinazolin-4-ones as a new class of DHFR inhibitors” (Bioorg Med Chem Lett, 2014)
